In publication PMC6934184, “Selective DNA-PKcs inhibition extends the therapeutic index of localized radiotherapy and chemotherapy” (The Journal of Clinical Investigation, 2019):

Biological target: T1, CSNK1G2 (CK1 gamma 2) (Homo sapiens, UniProt P78368)
T1 construct: purchased Thermo Fisher Scientific (Life Technologies) SelectScreen
Assay: SelectScreen Z'LYTE
Format: biochemical
In short: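 Percent values come from Thermo SelectScreen profiling of NU5455, combining activity and binding assays. CSF1R was run in Z'LYTE format at Km app ATP, and CAMK1 in Adapta format with ATP listed at 10.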

T1 sequence (P78368 whole entry): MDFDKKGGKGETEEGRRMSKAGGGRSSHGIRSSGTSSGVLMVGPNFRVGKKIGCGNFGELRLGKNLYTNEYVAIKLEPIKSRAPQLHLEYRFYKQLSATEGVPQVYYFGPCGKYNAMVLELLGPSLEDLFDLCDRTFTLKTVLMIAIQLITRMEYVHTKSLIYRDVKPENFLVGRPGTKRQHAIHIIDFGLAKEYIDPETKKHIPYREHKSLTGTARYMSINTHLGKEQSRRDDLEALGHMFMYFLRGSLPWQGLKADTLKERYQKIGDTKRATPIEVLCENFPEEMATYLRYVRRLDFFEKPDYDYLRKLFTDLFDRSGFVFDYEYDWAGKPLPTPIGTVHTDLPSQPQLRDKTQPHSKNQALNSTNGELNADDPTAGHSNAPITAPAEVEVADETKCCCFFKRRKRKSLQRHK

CN(C(=O)CN1CCOCC1)c1ccc2sc3c(-c4cccc5c(=O)cc(N6CC7CCC(C6)O7)oc45)cccc3c2c1 [NU5455]
inhibition at 1 µM: -9.3%
